Molecules are shown by their SMILES. Values after ≈ are worked out from the molar mass of the structure shown.

In data set [1] the test system is Staphylococcus aureus. In words: Antibacterial activity against methicillin-resistant Staphylococcus aureus 209P JC1. The format is functional.
Data set [2] concerns Staphylococcus aureus. In words: Antibacterial activity against carbapenem-resistant Staphylococcus aureus M-126HR. The format is functional.
Data set [3] concerns Staphylococcus aureus. In words: Antibacterial activity against methicillin-resistant Staphylococcus aureus M-126. The format is functional.
Data set [4] has as its system Staphylococcus aureus. In words: Antibacterial activity against methicillin-resistant Staphylococcus aureus. The format is functional.
A short description of data set [5]: Solubility in water at 5 mg/mL. The format is physicochemical.

What is called MIC is the least concentration at which growth counts as inhibited. A lower MIC goes with a more susceptible organism. Consider `CSc1c2sc(C3=C(C(=O)O)N4C(=O)[C@H]([C@@H](C)O)[C@H]4[C@H]3C)cn2c[n+]1Cc1ccc(C[n+]2ccccc2)cc1.[Br-].[Br-]`, for which the minimum inhibitory concentration (MIC) is less than 0.006 µg/mL in the data set with Staphylococcus aureus [1], 1.56 µg/mL in the data set with Staphylococcus aureus [2] and 0.78 µg/mL in the data set with Staphylococcus aureus [3].

Consider `CSc1c2sc(C3=C(C(=O)O)N4C(=O)[C@H]([C@@H](C)O)[C@H]4[C@H]3C)cn2c[n+]1Cc1cccc(C[N+]23CC[N+](C)(CC2)CC3)c1.[I-].[I-].[I-]`, for which the MIC in the data set on Staphylococcus aureus [1] was less than 0.006 µg/mL; in the data set with Staphylococcus aureus [2], 1.56 µg/mL; with Staphylococcus aureus [3] it was 0.78 µg/mL.

The term MIC50 denotes an inhibitory concentration at the 50% level, which refers to growth in some studies and to a panel of isolates in others. A low value points to higher susceptibility. By MIC90 is commonly meant an inhibitory concentration at the 90% level, which refers to growth in some studies and to a panel of isolates in others. One may read the solubility as how much of the substance goes into solution per volume. A higher solubility goes with much dissolved substance. In the data set on Staphylococcus aureus [4], `CSc1c2sc(C3=C(C(=O)O)N4C(=O)[C@H]([C@@H](C)O)[C@H]4[C@H]3C)cn2c[n+]1Cc1cccc(C[N+]23CC[N+](CCCN)(CC2)CC3)c1.[I-].[I-].[I-]` came in with an MIC50 of 0.39 µg/mL. In the data set on Staphylococcus aureus [4], this molecule yielded an MIC90 of 0.78 µg/mL. The solubility in data set [5] came out at 20 mg/mL. Further, the minimum inhibitory concentration (MIC) with Staphylococcus aureus [1] was less than 0.006 µg/mL; with Staphylococcus aureus [2], 0.78 µg/mL; in the data set on Staphylococcus aureus [3] it was 0.39 µg/mL.

Turning to `CSc1c2sc(C3=C(C(=O)O)N4C(=O)[C@H]([C@@H](C)O)[C@H]4[C@H]3C)cn2c[n+]1Cc1cccc(C[n+]2cccc(C(N)=O)c2)c1.[Br-].[Br-]`, the minimal inhibitory concentration (MIC) was less than 0.006 µg/mL in the data set on Staphylococcus aureus [1], 1.56 µg/mL against Staphylococcus aureus [2] and 0.39 µg/mL in the data set on Staphylococcus aureus [3].

Turning to `CSc1c2sc(C3=C(C(=O)O)N4C(=O)[C@H]([C@@H](C)O)[C@H]4[C@H]3C)cn2c[n+]1Cc1cccc(C[N+]23CC[N+](CCO)(CC2)CC3)c1.[Br-].[I-].[I-]`, the MIC was less than 0.006 µg/mL against Staphylococcus aureus [1], 1.56 µg/mL in the data set on Staphylococcus aureus [2] and 0.78 µg/mL with Staphylococcus aureus [3].

`CSc1c2sc(C3=C(C(=O)O)N4C(=O)[C@H]([C@@H](C)O)[C@H]4[C@H]3C)cn2c[n+]1Cc1cccc(C[N+]2(C)CCOCC2)c1.[Br-].[Br-]`: the figures for the MIC in the data set with Staphylococcus aureus [1], in the data set with Staphylococcus aureus [2] and in the data set with Staphylococcus aureus [3] were less than 0.006 µg/mL, 3.13 µg/mL and 0.78 µg/mL, respectively.

Turning to `CSc1c2sc(C3=C(C(=O)O)N4C(=O)[C@H]([C@@H](C)O)[C@H]4[C@H]3C)cn2c[n+]1Cc1ccc(C[N+]2(C)CCOCC2)cc1.[Br-].[Br-]`, the MIC in the data set on Staphylococcus aureus [1] is less than 0.006 µg/mL; with Staphylococcus aureus [2] it was 3.13 µg/mL; against Staphylococcus aureus [3], 1.56 µg/mL.

Take `CSc1c2sc(C3=C(C(=O)O)N4C(=O)[C@H]([C@@H](C)O)[C@H]4[C@H]3C)cn2c[n+]1Cc1ccccc1C[N+]1(C)CCOCC1.[Br-].[Br-]`: the MIC with Staphylococcus aureus [1] was less than 0.006 µg/mL; against Staphylococcus aureus [2], 3.13 µg/mL; in the data set with Staphylococcus aureus [3], 1.56 µg/mL.

Take `CSc1c2sc(C3=C(C(=O)O)N4C(=O)[C@H]([C@@H](C)O)[C@H]4[C@H]3C)cn2c[n+]1Cc1cccc(C[n+]2cc3sccn3c2)c1.[Br-].[Br-]`: the MIC in the data set on Staphylococcus aureus [1] was less than 0.006 µg/mL; in the data set with Staphylococcus aureus [2] it was 1.56 µg/mL; against Staphylococcus aureus [3] it was 0.78 µg/mL.

Consider `CSc1c2sc(C3=C(C(=O)O)N4C(=O)[C@H]([C@@H](C)O)[C@H]4[C@H]3C)cn2c[n+]1Cc1ccccc1C[n+]1ccccc1.[Br-].[Br-]`, for which the MIC against Staphylococcus aureus [1] was less than 0.006 µg/mL; with Staphylococcus aureus [2], 3.13 µg/mL; in the data set on Staphylococcus aureus [3], 1.56 µg/mL.

On to `CSc1c2sc(C3=C(C(=O)O)N4C(=O)[C@H]([C@@H](C)O)[C@H]4[C@H]3C)cn2c[n+]1Cc1cccc(C[N+]2(C)CCCC2)c1.[Br-].[Br-]`, for which the figures for the MIC with Staphylococcus aureus [1], against Staphylococcus aureus [2] and in the data set with Staphylococcus aureus [3] were less than 0.006 µg/mL, 3.13 µg/mL and 0.78 µg/mL, respectively.

Take `CSc1c2sc(C3=C(C(=O)O)N4C(=O)[C@H]([C@@H](C)O)[C@H]4[C@H]3C)cn2c[n+]1Cc1cccc(C[n+]2ccsc2)c1.[Br-].[Br-]`: the minimal inhibitory concentration (MIC) against Staphylococcus aureus [1] is less than 0.006 µg/mL; in the data set with Staphylococcus aureus [2] it was 3.13 µg/mL; in the data set on Staphylococcus aureus [3] it was 0.78 µg/mL.

On to `CSc1c2sc(C3=C(C(=O)O)N4C(=O)[C@H]([C@@H](C)O)[C@H]4[C@H]3C)cn2c[n+]1Cc1cccc(C[n+]2ccccc2)c1.[Br-].[Br-]`, for which the MIC against Staphylococcus aureus [1] was less than 0.006 µg/mL; against Staphylococcus aureus [2] it was 1.56 µg/mL; in the data set with Staphylococcus aureus [3], 0.78 µg/mL.

As for `CSc1c2sc(C3=C(C(=O)O)N4C(=O)[C@H]([C@@H](C)O)[C@H]4[C@H]3C)cn2c[n+]1Cc1cccc(C[N+]23CC[N+](CC(N)=O)(CC2)CC3)c1.[Br-].[I-].[I-]`, the MIC is less than 0.006 µg/mL with Staphylococcus aureus [1], 1.56 µg/mL against Staphylococcus aureus [2] and 0.78 µg/mL in the data set with Staphylococcus aureus [3].

`CSc1c2sc(C3=C(C(=O)O)N4C(=O)[C@H]([C@@H](C)O)[C@H]4[C@H]3C)cn2c[n+]1Cc1cccc(C[n+]2ccc3ccccc3c2)c1.[Br-].[Br-]`: the minimum inhibitory concentration (MIC) was less than 0.006 µg/mL against Staphylococcus aureus [1], 1.56 µg/mL with Staphylococcus aureus [2] and 0.78 µg/mL in the data set on Staphylococcus aureus [3].

As to `CSc1c2sc(C3=C(C(=O)[O-])N4C(=O)[C@H]([C@@H](C)O)[C@H]4[C@H]3C)cn2c[n+]1CC(N)=O`, the values for the MIC against Staphylococcus aureus [1], in the data set with Staphylococcus aureus [2] and against Staphylococcus aureus [3] were less than 0.006 µg/mL, 3.13 µg/mL (≈ 7.17 µM) and 1.56 µg/mL (≈ 3.57 µM), respectively.

In the case of `CSc1c2sc(C3=C(C(=O)[O-])N4C(=O)[C@H]([C@@H](C)O)[C@H]4[C@H]3C)cn2c[n+]1Cc1ccc(C#N)cc1`, the values for the MIC in the data set with Staphylococcus aureus [1], in the data set on Staphylococcus aureus [2] and with Staphylococcus aureus [3] were less than 0.006 µg/mL, 3.13 µg/mL (≈ 6.33 µM) and 0.78 µg/mL (≈ 1.58 µM), respectively.

For the molecule `CSc1c2sc(C3=C(C(=O)[O-])N4C(=O)[C@H]([C@@H](C)O)[C@H]4[C@H]3C)cn2c[n+]1Cc1ccccc1`, the MIC in the data set on Staphylococcus aureus [1] was less than 0.006 µg/mL; with Staphylococcus aureus [2], 1.56 µg/mL (≈ 3.32 µM); in the data set with Staphylococcus aureus [3], 0.39 µg/mL (≈ 0.831 µM).

For `CSc1c2sc(C3=C(C(=O)[O-])N4C(=O)[C@H]([C@@H](C)O)[C@H]4[C@H]3C)cn2c[n+]1Cc1cccc(N)c1`, the MIC against Staphylococcus aureus [1] is less than 0.006 µg/mL; in the data set with Staphylococcus aureus [2] it was 3.13 µg/mL (≈ 6.46 µM); with Staphylococcus aureus [3] it was 0.78 µg/mL (≈ 1.61 µM).

`CSc1c2sc(C3=C(C(=O)[O-])N4C(=O)[C@H]([C@@H](C)O)[C@H]4[C@H]3C)cn2c[n+]1Cc1ccc(Cl)cc1`: the figures for the MIC in the data set with Staphylococcus aureus [1], in the data set with Staphylococcus aureus [2] and in the data set with Staphylococcus aureus [3] were less than 0.006 µg/mL, 1.56 µg/mL (≈ 3.1 µM) and 0.78 µg/mL (≈ 1.55 µM), respectively.

Take `CCN(CC)C(=O)c1ccc(C[n+]2cn3cc(C4=C(C(=O)[O-])N5C(=O)[C@H]([C@@H](C)O)[C@H]5[C@H]4C)sc3c2SC)cc1`: the MIC amounted to 0.013 µg/mL (≈ 0.0229 µM) against Staphylococcus aureus [1], 6.25 µg/mL (≈ 11 µM) against Staphylococcus aureus [2] and 1.56 µg/mL (≈ 2.74 µM) in the data set on Staphylococcus aureus [3].

Take `COc1cccc(C[n+]2cn3cc(C4=C(C(=O)[O-])N5C(=O)[C@H]([C@@H](C)O)[C@H]5[C@H]4C)sc3c2SC)c1`: the minimum inhibitory concentration (MIC) in the data set on Staphylococcus aureus [1] was less than 0.006 µg/mL; with Staphylococcus aureus [2], 1.56 µg/mL (≈ 3.12 µM); in the data set on Staphylococcus aureus [3] it was 0.78 µg/mL (≈ 1.56 µM).

On to `CSc1c2sc(C3=C(C(=O)[O-])N4C(=O)[C@H]([C@@H](C)O)[C@H]4[C@H]3C)cn2c[n+]1Cc1ccc(C(=O)O)cc1`, for which the minimal inhibitory concentration (MIC) with Staphylococcus aureus [1] came out at 0.025 µg/mL (≈ 0.0487 µM); against Staphylococcus aureus [2], 12.5 µg/mL (≈ 24.3 µM); against Staphylococcus aureus [3], 3.13 µg/mL (≈ 6.09 µM).

Take `CSc1c2sc(C3=C(C(=O)[O-])N4C(=O)[C@H]([C@@H](C)O)[C@H]4[C@H]3C)cn2c[n+]1Cc1cccc(O)c1`: the minimal inhibitory concentration (MIC) in the data set on Staphylococcus aureus [1] was less than 0.006 µg/mL; against Staphylococcus aureus [2], 1.56 µg/mL (≈ 3.21 µM); with Staphylococcus aureus [3], 0.39 µg/mL (≈ 0.803 µM).

Turning to `C[C@@H](O)[C@H]1C(=O)N2C(C(=O)O)=C(SCCNC=N)C[C@H]12` [IMIPENEM ANHYDROUS], the minimal inhibitory concentration (MIC) against Staphylococcus aureus [1] worked out at 0.013 µg/mL (≈ 0.0434 µM); in the data set with Staphylococcus aureus [2] it was 100 µg/mL (≈ 334 µM); against Staphylococcus aureus [3] it was 25 µg/mL (≈ 83.5 µM).

As to `CN[C@H](CC(C)C)C(=O)N[C@H]1C(=O)N[C@@H](CC(N)=O)C(=O)N[C@H]2C(=O)N[C@H]3C(=O)N[C@H](C(=O)N[C@H](C(=O)O)c4cc(O)cc(O)c4-c4cc3ccc4O)[C@H](O)c3ccc(c(Cl)c3)Oc3cc2cc(c3O[C@@H]2O[C@H](CO)[C@@H](O)[C@H](O)[C@H]2O[C@H]2C[C@](C)(N)[C@H](O)[C@H](C)O2)Oc2ccc(cc2Cl)[C@H]1O` [VANCOMYCIN], the MIC50 with Staphylococcus aureus [4] is 1.56 µg/mL (≈ 1.08 µM). For the same molecule, the MIC90 in the data set on Staphylococcus aureus [4] came to 1.56 µg/mL (≈ 1.08 µM). In addition, the MIC against Staphylococcus aureus [1] was 0.78 µg/mL (≈ 0.538 µM); in the data set with Staphylococcus aureus [2] it was 1.56 µg/mL (≈ 1.08 µM); in the data set with Staphylococcus aureus [3] it was 1.56 µg/mL (≈ 1.08 µM).
